# Results as given in publication PMC6272448, “Synthesis, ^18F-Radiolabelling and Biological Characterization of Novel Fluoroalkylated Triazine Derivatives for in Vivo Imaging of Phosphodiesterase 2A in Brain via Positron Emission Tomography” (Molecules, 2015).
# Key:
# [1] = in vitro stability in PBS, n-octanol and pig plasma; assay type: in vitro ADME; conditions: PBS pH 7.4, n-octanol and pig plasma, 60 min at 37 °C; radio-TLC and radio-HPLC
# Method: To estimate the lipophilicity of [^18F]TA3 and [^18F]TA4, the distribution coefficients were determined by partitioning between n-octanol and phosphate buffered saline (PBS, pH 7.4) at ambient temperature using the conventional shake-flask method. […] In vitro stability of each radioligand was investigated in phosphate buffered saline (PBS, pH 7.4), n-octanol and pig plasma after 60 min incubation at 37 °C.
# In vitro stabilities of [^18F]TA3 or [^18F]TA4 were investigated by incubation of the radioligands in phosphate buffered saline (PBS, pH 7.4), n-octanol and pig plasma at 37 °C for 60 min (~5 MBq of the radioligand added to 500 µL of each medium). Samples were taken at 15, 30 and 60 min after incubation and analyzed by radio-TLC and radio-HPLC (system B).
# [2] = in vivo metabolism in mice, micellar HPLC (MLC); conditions: CD-1 mice, 30 min p.i.; for intact radioligand in brain: brain homogenate; for intact radioligand in plasma: direct injection
# Description: Therefore we used micellar HPLC (MLC), because this method allows the direct injection of plasma samples without deproteination. MLC was recently investigated by Nakao et al. regarding their suitability for direct plasma metabolite analysis of PET radioligands. As eluent a mixture of an aqueous solution of sodium dodecyl sulphate (SDS), phosphate buffer and 1-propanol was used. According to the published procedure, a gradient mode was applied starting under micellar conditions to completely elute the protein fraction and release the protein bound ^18F-compounds by the SDS micelles. Subsequent increase of the amount of 1-propanol as organic modifier leads to high submicellar conditions resulting in the elution of the intact radioligand and its radio-metabolites.
# The radioligands [^18F]TA3 or [^18F]TA4 (~60 MBq in 150 µL isotonic saline) were injected via the tail vein in female CD-1 mice (10–12 weeks old). Brain and blood samples were obtained at 30 min p.i., plasma separated by centrifugation (14,000× g, 1 min), and brain homogenized in ~1 mL isotonic saline on ice (10 strokes of a PTFE plunge at 1000 rpm in a borosilicate glass cylinder; Potter S Homogenizer, B. Braun Melsungen AG, Melsungen, Germany).
# For preparation of the MLC injection samples, mouse plasma (20–50 µL, 30 min p.i.) was dissolved in 100–300 µL of 200 mM aqueous SDS and injected directly into the MLC system (500 µL sample loop; column: Reprosil-Pur C18-AQ, 250 × 4.6 mm, particle size: 10 µm; gradient: 0–15 min: 3% 1-PrOH, 15–40 min: 3% → 30% 1-PrOH; 40–49 min: 30% 1-PrOH, 49–50 min: 30% → 3% 1-PrOH; 50–60 min: 3% 1-PrOH/100 mM SDS, 10 mM Na2HPO4; flow: 1 mL/min; ambient temperature). […] Homogenized brain material (100–200 µL, 30 min p.i.) was dissolved in 500 µL of 200 mM aqueous SDS, stirred at 75 °C for 5 min and after cooling to ambient temperature injected into the MLC system.
Compound,in vitro stability [1],intact radioligand in brain [2],intact radioligand in plasma [2]
COc1ccc2nnc3c(C)nc(-c4cc(OCCCC[18F])ccc4F)n3c2n1 [[^18F]TA4],stable in all media tested in vitro,4 % of total activity,5 % of total activity
COc1ccc2nnc3c(C)nc(-c4cc(OCCC[18F])ccc4F)n3c2n1 [[^18F]TA3],stable in all media tested in vitro,29 % of total activity,5 % of total activity
